Data set [1] concerns larvae of blowfly, Lucilia sericata. The data set can be described thus: whole plant or invertebrate. The note with it: dose rate of 20 ppm, Lucilia sericata larvae on treated filter paper with bovine serum; for % Mortality 24 h: assessed at 24 h; for % Mortality 48 h: assessed at 48 h. As to the method:
Comparative Evaluation of the Efficacy of a 3-Aryl-4-hydroxyfuranone Compound Against Blowfly Larvae
In this evaluation, filter paper discs are treated with an acetone solution of test compound and allowed to dry. Bovine serum and newly emerged larvae of blowfly, Lucilia sericata, are added to the treated filter paper. Mortality is assessed at 24 h and 48 h. When more than one evaluation is performed, the data are averaged.

Another data set deals with C. elegans. The data set can be described thus: Efficacy against nematodes (C. elegans motility rating). Details: key: 0: no effect; 7: reduced movement in 24 h; 8: dead in 24 h; 9: dead in 4 h. The note with it: observations at 4 h and 24 h postimmersion. As to the method: Evaluation of the Efficacy of a 3-Aryl-4-Hydroxyfuranone Against Nematodes
In this evaluation, cultures of C. elegans are maintained on E. coli lawns on Nematode Growth Agar at 20° C. New cultures are established twice a week. Nematodes for testing are rinsed from plates using M9 Buffer. […] One μL of this solution is added to each well of a 96 well plate. A mixture of C. elegans in M9 Buffer (100 μL) is added to each well, such that approximately 50 worms of mixed stages (L1, L2, L3, L4 and adults) are present in each well at a final concentration of 100 ppm, 150 ppm or […] of test compound. Concentration of test compound may be varied by gradient dilution of the stock DMSO solution. Observations are made under a dissecting microscope at 4 h and 24 h postimmersion. A rating is based on the motility of the larvae and adults, using the rating system shown below.

As to `O=C1OC(=Cc2ccc(-c3ccccc3CO)cc2)C(O)=C1c1ccccc1CO`, in data set [1], the “% Mortality 24 h” value is reported as 0% and the “% Mortality 48 h” value turned out to be 0%.
In the case of `O=C1O/C(=C\c2ccc(-c3cccc(CO)c3)cc2)C(O)=C1c1cccc(CO)c1`, in data set [1], the “% Mortality 24 h” value is on record as 0% and the “% Mortality 48 h” value stood at 0%.
With `CC(=O)Nc1cccc(C2=C(O)/C(=C/c3ccc(-c4cccc(NC(C)=O)c4)cc3)OC2=O)c1`, in data set [1], the “% Mortality 24 h” value is listed as 0% and the “% Mortality 48 h” value came out at 0%.
On to `O=C1O/C(=C\c2ccc(N3CCN(c4ccccc4Cl)CC3)c(Cl)c2)C(O)=C1c1cc(Cl)cc(Cl)c1`, for which, in data set [1], the “% Mortality 24 h” value was 0% and the “% Mortality 48 h” value is 0%.
With `CCOC(=O)N1CCN(c2ccc(/C=C3\OC(=O)C(c4cc(Cl)cc(Cl)c4)=C3O)cc2F)CC1`, in data set [1], the “% Mortality 24 h” value stood at 0% and the “% Mortality 48 h” value is 0%.
In the case of `COc1cc(C=C2OC(=O)C(c3cc(Cl)cc(Cl)c3)=C2O)ccc1-c1cccc(C(F)(F)F)c1`, in data set [1], the “% Mortality 24 h” value was found to be 0% and the “% Mortality 48 h” value came out at 0%.
For the molecule `N#Cc1ccc(C2=C(O)/C(=C/c3ccc(-c4ccc(C#N)cc4)cc3)OC2=O)cc1`, in data set [1], the “% Mortality 24 h” value was 0% and the “% Mortality 48 h” value was found to be 0%.
`CC(C)(C)c1ccc(-c2ccc(C3=C(O)C(=Cc4ccc(-c5ccccc5)cc4)OC3=O)cc2)cc1`: in data set [1], the “% Mortality 24 h” value was determined as 0% and the “% Mortality 48 h” value is 0%.
On to `C=CCOC1=C(c2ccc(Cl)cc2)C(=O)OC1=Cc1ccc(C#N)cc1` (mixture of isomers), for which, in data set [1], the “% Mortality 24 h” value worked out at 0% and the “% Mortality 48 h” value is 0%.
Regarding `N#Cc1ccc(-c2ccc(C=C3OC(=O)C(c4ccc(C(F)(F)F)cc4)=C3O)cc2)cc1` (mixture of isomers), in data set [1], the “% Mortality 24 h” value was 0% and the “% Mortality 48 h” value is reported as 0%.
For the molecule `O=C1OC(=Cc2ccc(-c3ccc(Cl)cc3)cc2)C(O)=C1c1ccc(C(F)(F)F)cc1` (mixture of isomers), in data set [1], the “% Mortality 24 h” value was determined as 0% and the “% Mortality 48 h” value came to 65%.
For `N#Cc1ccc(C2=C(O)C(=Cc3ccc(-c4ccc(Cl)cc4)cc3)OC2=O)cc1` (mixture of isomers) the same measures were 0% and 100%.
As for `N#Cc1ccc(-c2ccc(C=C3OC(=O)C(c4ccc(F)cc4)=C3O)cc2)cc1` (mixture of isomers), in data set [1], the “% Mortality 24 h” value is 0% and the “% Mortality 48 h” value worked out at 0%.
Regarding `O=C1OC(=Cc2ccc(-c3ccc(Cl)cc3)cc2)C(O)=C1c1ccc(F)cc1` (mixture of isomers), in data set [1], the “% Mortality 24 h” value came to 0% and the “% Mortality 48 h” value was found to be 0%.
`O=C1O/C(=C\c2cccc(C(F)(F)F)c2)C(O)=C1c1cccc2ccccc12` [R=H; R1=1-naphthyl; R2=3-CF3—C6H4] came in with a Rating in the data set on C. elegans (dose 150 ppm) of 0.
Same read-out and setting: for `O=C1O/C(=C\c2ccc(Cl)cc2)C(O)=C1c1cccc2ccccc12` [R=H; R1=1-naphthyl; R2=4-Cl—C6H4] the value was 0; for `O=C1O/C(=C\c2ccc(-c3ccccc3F)cc2)C(O)=C1c1ccccc1F` [R=H; R1=2-F—C6H4; R2=4-(2′-F-biphenyl)], 8.
In the data set on C. elegans (dose 150 ppm), `O=C1O/C(=C\c2cccc(C(F)(F)F)c2)C(O)=C1c1ccc2ccccc2c1` [R=H; R1=2-naphthyl; R2=3-CF3—C6H4] displayed a Rating of 9.
Regarding `O=C1O/C(=C\c2cccc3ccccc23)C(O)=C1c1cccc(C=NO)c1` [R=H; R1=3-(C═NOH)—C6H4; R2=1-naphthyl], the Rating in the data set with C. elegans (dose 150 ppm) came out at 0.
Still for that read-out and setting: for `O=C1O/C(=C\c2ccccc2)C(O)=C1c1cccc(C(F)(F)F)c1` [R=H; R1=3-CF3—C6H4; R2=C6H5] the value was 8; for `O=C1OC(=Cc2cccc3ccccc23)C(O)=C1c1cccc(CO)c1` [R=H; R1=3-CH2OH—C6H4; R2=1-naphthyl], 0; for `O=Cc1cccc(C2=C(O)/C(=C/c3cccc4ccccc34)OC2=O)c1` [R=H; R1=3-CHO—C6H4; R2=1-naphthyl], 0.
For `N#Cc1cccc(C2=C(O)/C(=C/c3ccc(-c4cccc(C#N)c4)cc3)OC2=O)c1` [R=H; R1=3-CN—C6H4; R2=4-(3′-CN-biphenyl)], the Rating with C. elegans (dose 150 ppm) is 0.
Regarding `O=C1O/C(=C\c2ccccc2-c2cccc(Cl)c2)C(O)=C1c1cccc(Cl)c1` [R=H; R1=3-Cl—C6H4; R2=2-(3′-Cl-biphenyl)], in the data set with C. elegans (dose 150 ppm), the Rating worked out at 0.
Consider `O=C1O/C(=C\c2cc(C(F)(F)F)ccc2F)C(O)=C1c1cccc(-c2ccccc2)c1` [R=H; R1=3-biphenyl; R2=2-F-5-CF3—C6H3], for which the Rating with C. elegans (dose 200 μM) worked out at 9.
For `O=C1O/C(=C\c2cccc(C(F)(F)F)c2)C(O)=C1c1cccc(-c2ccccc2)c1` [R=H; R1=3-biphenyl; R2=3-CF3—C6H4], the Rating with C. elegans (dose 150 ppm) stood at 0.
In the data set with C. elegans (dose 200 μM), `O=C1O/C(=C\c2cc(F)cc(C(F)(F)F)c2)C(O)=C1c1cccc(-c2ccccc2)c1` [R=H; R1=3-biphenyl; R2=3-F-5-CF3—C6H3] yielded a Rating of 9.
Regarding `CC(=NO)c1ccc(C2=C(O)C(=Cc3cccc4ccccc34)OC2=O)cc1` [R=H; R1=4-(CH3C═NOH)—C6H4; R2=1-naphthyl], the Rating with C. elegans (dose 150 ppm) is given as 7.
On the same count and under the same terms, next, `O=C1O/C(=C\c2cccc3ccccc23)C(O)=C1c1ccc(C(F)(F)F)cc1` [R=H; R1=4-CF3—C6H4; R2=1-naphthyl]: 9.
For `Cc1ccc(C2=C(O)/C(=C/c3cccc(C(F)(F)F)c3Cl)OC2=O)cc1` [R=H; R1=4-CH3—C6H4; R2=2-Cl-3-CF3—C6H3], the Rating with C. elegans (dose 200 μM) turned out to be 9.
For `Cc1ccc(C2=C(O)/C(=C/c3cc(C(F)(F)F)ccc3Cl)OC2=O)cc1` [R=H; R1=4-CH3—C6H4; R2=2-Cl-5-CF3—C6H3], in the data set with C. elegans (dose 200 μM), the Rating was 0.
In turn, `N#Cc1ccc(/C=C2\OC(=O)C(c3ccc(C#N)cc3)=C2O)cc1` [R=H; R1=4-CN—C6H4**; R2=4-CN—C6H4] showed a Rating in the data set on C. elegans (dose 150 ppm) of 9.
Same read-out and setting: next, `N#Cc1ccc(C2=C(O)C(=Cc3ccc(Cl)cc3)OC2=O)cc1` [R=H; R1=4-CN—C6H4**; R2=4-Cl—C6H4]: 9.
In the data set on C. elegans (dose 150 ppm), `N#Cc1ccc(C2=C(O)C(=Cc3ccc(-c4ccc(C#N)cc4)cc3)OC2=O)cc1` [R=H; R1=4-CN—C6H4; R2=4-(4′-CN-biphenyl)] came in with a Rating of 8.
Same read-out and setting: for `COC(=O)c1ccc(C2=C(O)/C(=C/c3cccc4ccccc34)OC2=O)cc1` [R=H; R1=4-CO2CH3—C6H4; R2=1-naphthyl] the value was 9; for `CC(=O)c1ccc(C2=C(O)C(=Cc3ccccc3C(F)(F)F)OC2=O)cc1` [R=H; R1=4-COCH3—C6H4; R2=2-CF3—C6H4], 0; for `O=C1O/C(=C\c2ccccc2-c2ccc(Cl)cc2)C(O)=C1c1ccc(Cl)cc1` [R=H; R1=4-Cl—C6H4; R2=2-(4′-Cl-biphenyl)], 0.
In the data set on C. elegans (dose 150 ppm), `O=C1O/C(=C\c2cccc(C(F)(F)F)c2)C(O)=C1c1ccc(Cl)cc1` [R=H; R1=4-Cl—C6H4; R2=3-CF3—C6H4] came in with a Rating of 9.
`O=C1OC(=Cc2ccccc2C(F)(F)F)C(O)=C1c1ccc(F)cc1` [R=H; R1=4-F—C6H4; R2=2-CF3—C6H4] returned a Rating in the data set with C. elegans (dose 150 ppm) of 0.
Still for that read-out and setting: next, `COc1ccc(C2=C(O)/C(=C/c3ccc4ccccc4c3)OC2=O)cc1` [R=H; R1=4-OCH3—C6H4; R2=2-naphthyl]: 0; `COc1ccc(C2=C(O)/C(=C/c3ccc(Cl)cc3)OC2=O)cc1` [R=H; R1=4-OCH3—C6H4; R2=4-Cl—C6H4]: 0; `COc1ccc(/C=C2\OC(=O)C(c3ccc(OC)cc3)=C2O)cc1` [R=H; R1=4-OCH3—C6H4; R2=4-OCH3—C6H4]: 0.
In the case of `O=C1OC(=Cc2cc(C(F)(F)F)ccc2Cl)C(O)=C1c1ccc(-c2ccccc2)cc1` [R=H; R1=4-biphenyl; R2=2-Cl-5-CF3—C6H3], the Rating in the data set on C. elegans (dose 200 μM) was found to be 9.
In the data set with C. elegans (dose 150 ppm), `O=C1O/C(=C\c2ccc3ccccc3c2)C(O)=C1c1ccc(-c2ccccc2)cc1` [R=H; R1=4-biphenyl; R2=2-naphthyl] showed a Rating of 0.
As to `O=C1OC(=Cc2cccc(C(F)(F)F)c2)C(O)=C1c1ccc(-c2ccccc2)cc1` [R=H; R1=4-biphenyl; R2=3-CF3—C6H4], in the data set on C. elegans (dose 200 μM), the Rating is listed as 9.
Regarding `O=C1OC(=Cc2cc(F)cc(C(F)(F)F)c2)C(O)=C1c1ccc(-c2ccccc2)cc1` [R=H; R1=4-biphenyl; R2=3-F-5-CF3—C6H3], the Rating in the data set on C. elegans (dose 200 μM) came to 9.
In the data set on C. elegans (dose 150 ppm), `O=C1O/C(=C\c2ccc(-c3ccccc3)cc2)C(O)=C1c1ccc(-c2ccccc2)cc1` [R=H; R1=4-biphenyl; R2=4-biphenyl] showed a Rating of 9.
`O=C1O/C(=C\c2cccc(C(F)(F)F)c2)C(O)=C1c1ccccc1` [R=H; R1=C6H5; R2=3-CF3—C6H4] registered a Rating in the data set with C. elegans (dose 150 ppm) of 0.
In the data set with C. elegans (dose 100 ppm), `O=C1OC(=Cc2ccc(C(F)(F)F)cc2)C(O)=C1c1cccs1` [R=H; R1=thiophen-2-yl; R2=4-CF3—C6H4] came in with a Rating of 7.
Same read-out and setting: next, `N#Cc1ccc(C=C2OC(=O)C(c3cccs3)=C2O)cc1` [R=H; R1=thiophen-2-yl; R2=4-CN—C6H4]: 0; `O=C1O/C(=C\c2ccc(Cl)cc2)C(O)=C1c1cccs1` [R=H; R1=thiophen-2-yl; R2=4-Cl—C6H4]: 7.

The record behind these values is patent publication US7495027B2, “3-aryl-4-hydroxyfuranone compounds and the human and animal health use thereof” (Wyeth, priority 2003, dated 2009).
